“Also recorded” adds a separate entry of the source.
Key:
[1] = biological target: T1, rat liver squalene synthase (Rattus norvegicus, UniProt Q02769); details: cited from earlier work
T1 construct: host or cells: rat liver
T1 sequence (Q02769 1-416): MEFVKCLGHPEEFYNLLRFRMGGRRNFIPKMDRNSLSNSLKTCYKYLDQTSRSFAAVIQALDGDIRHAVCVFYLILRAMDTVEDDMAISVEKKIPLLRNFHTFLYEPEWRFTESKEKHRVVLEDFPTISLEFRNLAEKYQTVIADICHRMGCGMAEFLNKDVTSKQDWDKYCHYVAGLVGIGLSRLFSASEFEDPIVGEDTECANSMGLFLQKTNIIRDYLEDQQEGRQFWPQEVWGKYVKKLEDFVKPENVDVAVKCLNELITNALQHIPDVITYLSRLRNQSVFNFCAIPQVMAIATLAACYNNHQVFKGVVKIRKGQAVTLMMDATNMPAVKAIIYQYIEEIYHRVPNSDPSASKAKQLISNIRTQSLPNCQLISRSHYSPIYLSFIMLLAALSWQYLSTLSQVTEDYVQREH

[2] = biological target: T2, human recombinant farnesyl diphosphate synthase (Homo sapiens, UniProt P14324)
T2 sequence (P14324 67-419 limits assumed): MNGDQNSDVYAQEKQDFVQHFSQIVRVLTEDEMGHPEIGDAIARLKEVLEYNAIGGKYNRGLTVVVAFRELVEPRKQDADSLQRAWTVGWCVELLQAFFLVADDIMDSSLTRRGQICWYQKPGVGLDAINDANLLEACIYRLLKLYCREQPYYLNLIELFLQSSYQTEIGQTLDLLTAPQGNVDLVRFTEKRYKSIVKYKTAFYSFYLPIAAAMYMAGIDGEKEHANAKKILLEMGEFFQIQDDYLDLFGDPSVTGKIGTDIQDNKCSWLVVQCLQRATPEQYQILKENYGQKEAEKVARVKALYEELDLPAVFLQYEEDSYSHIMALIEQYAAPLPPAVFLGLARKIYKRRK

[3] = biological target: T2, human recombinant farnesyl diphosphate synthase; assay: biochemical
sterol synthesis = details: read-out: IC50, block of sterol synthesis; incorporation of 14C-MVA into sterol, rat liver cell-free system; cited from earlier work
osteoclasts in culture = details: cited from earlier work
[4] = biological target: Farnesyl protein transferase (FTase) (Homo sapiens, UniProt P49354+P49356)
[5] = system: mevalonate-derived non-saponifiable lipids in osteoclasts; assay: cells; details: Mus musculus, Osteoclast, read-out: IC50, incorporation of label from MVL into non-saponifiable lipids, osteoclasts, 2 hours pretreatment, 3 hours of labeling
[6] = system: protein prenylation in osteoclasts; assay: cells; details: Mus musculus, Osteoclast, read-out: IC50, labeling of prenylated proteins, osteoclasts, 15 μM lovastatin, 2 hours pretreatment, 3 hours of labeling
[7] = biological target: geranylgeranyl protein transferase I (GGTase I) (Homo sapiens, UniProt P49354+P53609)
[8] = biological target: geranylgeranyl protein transferase II (GGTase II) (Homo sapiens, UniProt P53611+Q92696)
[9] = system: mevalonate-derived non-saponifiable lipids in osteoclasts; details: alendronate 0-60 μM
[10] = system: protein prenylation in osteoclasts; details: at 60 μM

geranylgeranyl protein transferase II (GGTase II), sequence (Q92696 whole entry): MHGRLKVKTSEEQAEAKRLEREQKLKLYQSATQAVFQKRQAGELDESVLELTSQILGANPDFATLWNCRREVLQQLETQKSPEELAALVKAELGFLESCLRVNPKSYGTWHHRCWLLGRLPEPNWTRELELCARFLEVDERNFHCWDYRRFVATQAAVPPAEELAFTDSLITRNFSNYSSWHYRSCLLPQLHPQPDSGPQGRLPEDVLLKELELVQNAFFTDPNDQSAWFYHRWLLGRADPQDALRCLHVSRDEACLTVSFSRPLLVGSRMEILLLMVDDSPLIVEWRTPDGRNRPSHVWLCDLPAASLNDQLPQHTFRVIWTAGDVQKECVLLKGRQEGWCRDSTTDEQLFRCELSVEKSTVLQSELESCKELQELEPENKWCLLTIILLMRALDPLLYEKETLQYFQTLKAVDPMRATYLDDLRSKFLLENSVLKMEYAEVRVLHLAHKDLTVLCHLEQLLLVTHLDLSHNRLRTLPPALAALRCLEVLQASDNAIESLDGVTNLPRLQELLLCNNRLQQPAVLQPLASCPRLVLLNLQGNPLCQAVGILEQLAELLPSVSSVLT
geranylgeranyl protein transferase II (GGTase II), sequence (P53611 whole entry): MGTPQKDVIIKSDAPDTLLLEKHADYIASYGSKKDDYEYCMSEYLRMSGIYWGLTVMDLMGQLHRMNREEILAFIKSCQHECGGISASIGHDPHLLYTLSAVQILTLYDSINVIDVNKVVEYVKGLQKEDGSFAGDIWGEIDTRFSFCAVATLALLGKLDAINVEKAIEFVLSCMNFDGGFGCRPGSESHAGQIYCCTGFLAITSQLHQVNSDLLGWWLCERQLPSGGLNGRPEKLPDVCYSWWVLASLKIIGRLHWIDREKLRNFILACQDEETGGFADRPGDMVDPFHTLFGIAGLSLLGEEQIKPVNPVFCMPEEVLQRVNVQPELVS

O=P(O)(O)C(O)(CCN1CCCC1)P(=O)(O)O [EB 1053, 1-hydroxy-3-(1-pyrrolidinyl)-propylidene-1,1-bisphosphonic acid]
inhibition of squalene synthase (in words) [1]: potent, nanomolar inhibitors

CC(O)(P(=O)(O)O)P(=O)(O)O [etidronate, 1-hydroxyethane-1,1-diphosphonic acid]
inhibition of FPP synthase (in words) [2]: little or no effect
IC50 [3]: 80 µM

O=P(O)(O)C(NC1CCCCCC1)P(=O)(O)O [YM 175, Cycloheptylaminomethylene-1,1-bisphosphonic acid]
inhibition of squalene synthase (in words) [1]: potent, nanomolar inhibitors

NCCC(O)(P(=O)(O)O)P(=O)(O)O [pamidronate, 3-amino-1-hydroxypropylidene-1,1-bisphosphonic acid]
inhibition of FPP synthase (in words) [2]: effectively inhibit
inhibition of squalene synthase (in words) [1]: comparatively little effect
IC50 (sterol synthesis): 0.42 µM

CC[C@H](C)C(=O)O[C@H]1C[C@@H](C)C=C2C=C[C@H](C)[C@H](CC[C@@H]3C[C@@H](O)CC(=O)O3)[C@H]21 [lovastatin]
osteoclast formation and bone resorption (in words) (osteoclasts in culture): inhibited

NCCCC(O)(P(=O)(O)O)P(=O)(O)O [alendronate, 4-amino-1-hydroxybutylidene-1,1-bisphosphonic acid monosodium trihydrate]
inhibition of FPP synthase (in words) [2]: effectively inhibit
inhibition of FTase (in words) [4]: not inhibited
IC50 [5]: ~15 µM
IC50 [6]: ~15 µM
inhibition of GGTase I (in words) [7]: not inhibited
inhibition of squalene synthase (in words) [1]: comparatively little effect
IC50 (sterol synthesis): 0.168 µM
inhibition of GGTase II (in words) [8]: not inhibited
lowering of incorporation of label from MVL into non-saponifiable lipids [9]: up to 80%
labeling of prenylated proteins (in words) [10]: essentially disappears
osteoclast formation and bone resorption (in words) (osteoclasts in culture): inhibited

O=P(O)(O)C(Cl)(Cl)P(=O)(O)O [clodronate, 1,1-dichloromethylene-1,1-diphosphonic acid]
inhibition of FPP synthase (in words) [2]: no inhibition observed; also recorded: little or no effect

— US20020151459A1, “Methods for identifying compounds useful for inhibiting farnesyl diphosphate synthase” (Merck & Co., Inc., priority 2000, published 2002)
